In patent US12370178B2, “Tinostamustine for use in the treatment of t-cell prolymphocytic leukaemia” (Purdue Pharma L.P., priority 2017, dated 2025):

How the values were obtained:
[1] = system: T-PLL/NKtert co-cultured cells; test: T-PLL/NKtert co-culture apoptosis, Annexin-V/7-AAD flow cytometry; format: cell-based, human; details: 48 hours; for overcoming NKtert associated protection of co-cultured T-PLL cells: 0.1, 1 or 10 μM
Protocol: For co-culture experiments human bone marrow stromal cells (BMSC) NKtert cells (RIKEN BRC, Japan) were seeded at concentrations of 1.5×10^4 cells/well (96 well plate) and incubated at 37° C. in 5% CO2. After 24 hours, NKtert cells at approximately 60-80% confluency were treated with 0.02 mg/mL Mitomycin C for 3 hours in […], and then washed twice with PBS (Life Technologies). After another 24 hours, 4×10^5 T-PLL cells were added per well (with and without feeder cell support) and treated for 48 hours with the indicated compounds.
Referring to FIG. 3b, the control sample Ø on the left hand graph is normalised to 1 for normal T-PLL cells.

[2] = Healthy CD3+ T-cell cytotoxicity; format: cell-based, human; details: human, healthy CD3+ T-cells, suspension culture; read-out: LC50 (the source's name)
From the text: (§1) Healthy CD3+ T-cells were isolated from healthy human donors.

[3] = system: healthy CD3+ T-cells; test: Healthy CD3+ T-cell cytotoxicity; format: cell-based, human; details: selectivity T-PLL over healthy T-cells
From the text: as §1

[4] = system: T-PLL cells; test: Western blot analysis of patient T-PLL samples; format: cell-based, human; details: 1 μM, 36 hours
Protocol: FISH analysis used standard protocols (Vysis, Abbott).
T-PLL cells were cultured in suspension, and treated with either bendamustine (1 μM), vorinostat (1 μM), EDO-S101 (1 μM) or an equimolar combination of vorinostat/bendamustine (1 μM) for 36 hours at the indicated concentrations. After this time, the cells were harvested and lysed, the cell lysate sonicated, centrifuged to remove any cellular debris, and the supernatant collected. The protein concentration of each cell lysate solution (the supernatant) was determined and the western blot performed using standard methods.
The antibodies used were acHistone 3 (Sigma Aldrich), phospho-ATM Serine1981 (Sigma Aldrich), ATM (Sigma Aldrich), phospho-KAP-1 Serine824 (Sigma Aldrich), KAP-1 (Sigma Aldrich), phosphor-p53 Serine15 (Sigma Aldrich), acetyl-p53 (Sigma Aldrich), p53 (Sigma Aldrich), PARP (Sigma Aldrich), cleaved-PARP (Sigma Aldrich), and β-Actin (Sigma Aldrich).
After this time, the cells were harvested, lysed and protein expression levels determined by western blot analysis.
Staining for β-Actin was used as a loading control for each western blot ran (rows a to k, and rows l to o respectively).

[5] = system: primary human T-PLL cells; test: cells; details: 48 h, read-out: LC50
Protocol: (§2) RPMI-1640 medium (Sigma-Aldrich) supplemented with 1% L-Glutamine (200 mM; Sigma-Aldrich), 10% fetal bovine serum (FBS) (Sigma-Aldrich) and Penicillin/Streptomycin (100 U/0.1M; PAA) was used for in-vitro experimentation on suspension cultures of primary T-PLL cells, healthy CD3+ T cells, HH cells, and in co-culture experiments with NKtert cells. Cell suspensions were maintained at a density of 1.0×10^6 cells/mL (primary T-PLL cells) and 2.5×10^5 cells/mL (HH cells) for all cell culture experiments.
(§3) EDO-S101 (EDO MundiPharma), and vorinostat (SAHA; SML0061-5 mg, Sigma-Aldrich) were dissolved in DMSO. […] Cells were treated with each compound (or compounds) at the indicated concentrations and times. Dosing was based on published ranges and IC50/LD50 titrations. Cell apoptosis was determined using dual staining for Annexin-V (AnxV) and 7AAD via flow cytometry.
(§4) To further evaluate apoptosis in cells treated with EDO-S101, primary human T-PLL cells were treated with either vorinostat, bendamustine, EDO-S101, or an equimolar combination of vorinostat and bendamustine, at 0.01 μM, 0.1 μM, 1 μM, 5 μM or 10 μM concentrations, and incubated for 48 hours. Following treatment, cell death was evaluated by staining cells with the apoptosis markers Annexin-V and 7-AAD, and the number of apoptotic cells quantified by flow cytometry. Each experiment was repeated for the indicated number of times, and the average number of apoptosis negative cells plotted and normalised relative to an untreated control sample. A dose response curve (FIG. 3a) for each treatment was subsequently plotted, and the LD50 (median lethal dose) of each treatment determined.
(§5) To evaluate the protections conferred by NKtert cells to primary human T-PLL cells, NKtert cells and T-PLL cells were co-cultured for treatment with EDO-S101. Primary T-PLL cells with (FIG. 3b) and without (FIG. 3c) co-cultures of NKtert cells were treated with increasing concentrations (0.1, 1, or 10 μM) of vorinostat, bendamustine, an equimolar combination of vorinostat and bendamustine, or EDO-S101, and incubated for 48 hours.
(§6) Following treatment, cell death was evaluated by staining cells with the apoptosis markers Annexin-V and 7-AAD, and the number of apoptotic cells quantified by flow cytometry. Each experiment was repeated for the indicated number of times, and the average number of apoptosis negative cells plotted as a ratio relative to an untreated control sample (FIG. 3b, FIG. 3c).

[6] = system: NKtert cells; test: NKtert bone marrow stromal cell viability, MTT assay; details: 0.1, 1, 5 or 10 μM, 48 hours
Protocol: Cells were cultured in a HERAcell incubator (Thermo Scientific Heraeus) at 37° C. and 5% CO2 with 90% humidity. CD4+ mature T-cell leukemia HH cells were originally isolated from a patient with Sézary Syndrome (Starkebaum et al., 1991). NKtert (human bone marrow stromal cells [BMSC]) were purchased from RIKEN Cell Bank in 2011. Only cells derived from the original cell stock as purchased, and which had been propagated for 2 to 3 passages before long-term storage in liquid nitrogen, were used. Cell cultures were terminated after the 10th passage (4 to 6 weeks of being in culture). Cells were authenticated following thawing by evaluation of characteristic growth behaviour and by flow cytometry. Cells were routinely tested for the presence of mycoplasma, using standard PCR protocols (primers: for1: 5′-acaccatgggagytggtaat-3′, (SEQ ID No; 1) rev1: 5′-cttcwtcgattycagacccaaggcat-3 (SEQ ID NO: 2)′, for2: 5′-gtgsggmtggatcacctcct-3 (SEQ ID NO: 3)′, rev2: 5′-gcatccaccawawacyctt-3′ (SEQ ID NO: 4)).
Consequently, the effect on cell viability of NKtert bone marrow stromal cells (BMSC) feeders cells alone was also investigated. Cells were treated with either bendamustine, vorinostat, an equimolar combination of bendamustine and vorinostat, or EDO-S101, at either 0.1, 1, 5 or 10 μM concentrations, incubated for 48 hours, and cell viability assessed using MTT assays (FIG. 3d).

[7] = system: leukaemia/lymphoma cells derived from ΔJAK1 mice; test: ΔJAK1 mature T-cell lymphoma transfer model in mice; format: in vivo; details: for mean survival: 18 mg/kg i.v. on Day 7, 10, 13, 17, 22
Protocol: Transplantable leukaemia/lymphoma cells derived from ΔJAK1 mice (Heinrich et al, Mol. Ther. 2013, 21, 1160-8; nodal/spleen mature T-cell lymphoma based on insertional mutagenesis activating JAK1) were intravenously injected into background-matched mice (to facilitate the generation of uniform cohorts). 2.5×10^6 cells were transplanted intravenously into Rag1-deficient mice. […] Each treatment group was then treated with 18 mg/kg of either bendamustine, fludarabine, EDO-S101, or with vehicle control on days 7, 10, 13, 17, 22 (DMSO).
Mice were injected with leukaemia/lymphoma cells derived from ΔJAK1 mice, as previously described (FIG. 5). ΔJAK1 is a model for mature T-cell lymphoma. Mice were divided into four groups at random post-transplantation. Each group was intravenously administered either fludarabine (18 mg/kg), bendamustine (18 mg/kg) or EDO-S101 (18 mg/kg) at the indicated doses on Day 7, Day 10, Day 13, Day 17 and Day 22. The percentage survival of each cohort was plotted as a function of time (FIG. 5).

[8] = system: HH cells; test: HH cell viability, Annexin-V/7-AAD flow cytometry; format: cell-based, human; details: 48 hours treatment
Protocol: The alkylating agent bendamustine (MundiPharma) was dissolved in methanol.
Human primary T-PLL cells are unsuitable for cultivation under standard laboratory cell culture conditions, in part, due to their high levels of genomic heterogeneity and variable phenotypes. HH cells are derived from a highly chemotherapy resistant cutaneous lymphoma, and are suitable for cultivation under laboratory conditions. […] HH cells were therefore selected for the in vitro validation of EDO-S101.
To evaluate the cytotoxicity of EDO-S101 in comparison to bendamustine and vorinostat (SAHA), HH cells were treated with either EDO-S101, bendamustine, vorinostat or an equimolar bendamustine/vorinostat combination over a period 48 hours. Cells were treated with either 0.1 μM, 1 μM, 2.5 μM, 5 μM or 10 μM solutions of the indicated compounds (FIG. 1a).
Annexin-V specifically targets and identifies apoptotic cells. 7-AAD is a marker of late stage apoptotic, or necrotic cells. The number of Annexin-V and 7-AAD negative cells was counted for each sample.

[9] = system: CD2-MTCP1 cells; test: CD2-MTCP1p13 leukaemia transfer model in mice; format: in vivo; details: for increase in leukemic blood leukocyte (WBC) count: Day 14 vs Day 9 post-transplantation, compared to control and fludarabine; for average post-mortem spleen weight: day 22 post-transplantation, compared to fludarabine or control
From the text: DBA2×C57B6JF1 mice were used as recipients in all experiments. Transplantable leukaemia/lymphoma cells derived from CD2-MTCP1p13 tg mice (Gritti et al, Blood 1998, 92, 268-73; blood, spleen, and bone marrow) were intraperitoneally injected into background-matched mice (to facilitate the generation of uniform cohorts). 1×10^7 cells from CD2-MTCP1p13 mice were intraperitoneally injected into syngeneic recipients (n=26). Starting on day 10 post-transplantation, mice with a homogeneous distribution of leukemic blood leukocytes (WBC) were selected and randomly assigned into four treatment groups. Each group was then treated with either vehicle control (DMSO), fludarabine (34 mg/kg days 10, 15, 17, 21), bendamustine (day 10 at 60 mg/kg, days 15, 17, 21 at 20 mg/kg), and EDO-S101 (day 10 at 50 mg/kg, days 15, 17, 21 at 20 mg/kg) on the indicated days at the indicated doses.
Mice were injected with leukaemia cells derived from CD2-MTCP1 mice, as previously described (FIG. 4a).
CD2-MTCP1 cells are an aggressive, transplantable subline and are suitable for in vivo analysis as a T-PLL like model. […] Each group was intravenously administered either fludarabine (34 mg/kg), bendamustine (Day 10, 60 mg/kg; Day 15-21, 20 mg/kg) or EDO-S101 (Day 10, 50 mg/kg; Day 15-21, 20 mg/kg) at the indicated doses on Day 10, Day 15, Day 17, […] Day 21 post-transplantation. Samples of blood were taken at regular intervals (Day 9 and Day 14 post-transplantation), and the mice sacrificed at 22 days post-transplantation (FIG. 4a).
The blood samples taken were analysed for leukemic blood leukocyte levels (WBC), and the average cell count in each group determined.
Following sacrifice of the mice on day 22 post-transplantation, the post-mortem spleen weights of each mouse were determined (FIG. 4c). The reduced average spleen weight in mouse cohorts treated with bendamustine or EDO-S101, compared to cohorts treated with fludarabine or a control, corroborate the findings previously discussed in FIG. 4b. Tumour manifestation was therefore shown to be less advanced in cohorts treated with EDO-S101 or single-agent bendamustine, compared to fludarabine treated or control cohorts.

[10] = system: primary human T-PLL cells
Protocol: as §2, §3, §4, §5, §6

[11] = system: T-PLL; details: cited from earlier work
[12] = vs bendamustine, vorinostat or combination

Compound | overcoming NKtert associated protection of co-cultured T-PLL cells [1] | CC50 [5] [µM] | reduction in viability of NKtert cells [6] | mean survival [7] [days] | LD50 (median lethal dose) [8] [µM] | increase in leukemic blood leukocyte (WBC) count [9] | average post-mortem spleen weight [9] | other results
Cn1c(CCCCCCC(=O)NO)nc2cc(N(CCCl)CCCl)ccc21 [EDO-S101, 7-(5-(bis(2-chloroethyl)amino)-1-methyl-1H-benzo[d]imidazol-2-yl)-N-hydroxyheptanamide] | overcame the protection conferred by the NKtert cells | 1 | largely comparable | 26 | 1.5 | significantly delayed | reduced | approximate cell death count ([1]; co-cultured T-PLL/NKtert cells, 10 μM): greater than 95%; CC50 [2]: 4.4 µM; fold more potent against T-PLL cells compared to healthy CD3+ T-cells [3]: approximately 4 fold; accumulation of acetyl-p53 [4, 12]: greatest accumulation; accumulation of p-p53 [4, 12]: greatest accumulation; cleaved PARP (cPARP) [4, 12]: greatest increase; levels of pATM [4, 12]: largest increase; levels of pKAP1 [4, 12]: largest increase; levels of γH2AX [4, 12]: largest increase; acetylation of histone3 (acHistone3) ([4]; vs vorinostat or vorinostat + bendamustine): largest increase; increase in average survival time compared to bendamustine or fludarabine ([7]; 18 mg/kg i.v.): ≤ 8 days; fold increase in potency against T-PLL cells compared to combination of vorinostat and bendamustine ([10]; LC50 1.0 μM vs 4.4 μM): ~4 fold; approximate cell death count ([10]; T-PLL cells monoculture, 10 μM, 48 hours): greater than 95%
Cn1c(CCCC(=O)O)nc2cc(N(CCCl)CCCl)ccc21 [bendamustine, reference compound] | not as effective as EDO-S101 | 7.3 | did not have a pronounced concentration dependent effect | 18 | 8.0 | significantly delayed | reduced | 
Nc1nc(F)nc2c1ncn2[C@@H]1O[C@H](CO)[C@@H](O)[C@@H]1O [fludarabine, reference compound] |  |  |  | 19 |  |  |  | 
O=C(CCCCCCC(=O)Nc1ccccc1)NO [vorinostat] | not as effective as EDO-S101 | 20.4 |  |  | 2.7 |  |  | 
Alemtuzumab: monoclonal anti-CD52 antibody |  |  |  |  |  |  |  | overall response rates ([11]; T-PLL patients): 51-95%; median survival ([11]; patients achieving a complete response): 15-19 months
